The results in this text go back to ChEMBL document CHEMBL3120117, “Synthesis and antitumor activity evaluation of chrysin derivatives” (Eur J Med Chem, 2014).

Test [1] has as its system H22. Put plainly: Cytotoxicity against mouse H22 cells assessed as growth inhibition by MTT assay. The class given is functional, cell-based. Background: Tetrazolium dyes change colour on reduction, which living cells bring about.
Test [2] has as its system H22. Nature of the test: Cytotoxicity against mouse H22 cells assessed as growth inhibition by MTT assay relative to chrysin. In kind it is functional.
The subject of test [3] is H22. Put plainly: Cell cycle arrest in mouse H22 cells assessed as accumulation at G2/M phase at 1 mmol/l after 24 hrs by propidium iodide staining based flow cytometry (reference value: 15.42 +/-0.33%). The class given is functional. On the technique in general: In flow cytometry, cells or beads pass a laser one at a time.
Test [4] deals with H22. Nature of the test: Cell cycle arrest in mouse H22 cells assessed as accumulation at S phase at 1 mmol/l after 24 hrs by propidium iodide staining based flow cytometry (reference value: 70.21 +/-0.38%). In kind it is functional.
For test [5], the system named is H22. Nature of the test: Cell cycle arrest in mouse H22 cells assessed as accumulation at G1 phase at 1 mmol/l after 24 hrs by propidium iodide staining based flow cytometry (reference value: 14.38 +/-0.54%). In kind it is functional.

Take `CCOC(=O)COc1cc(OC(=O)c2ccccc2)cc2oc(-c3ccccc3)cc(=O)c12`: the IC50 (as a rule, the point on the concentration scale where inhibition reaches its midpoint) in the test with H22 [1] worked out at 3.22 mM.
Still for that read-out and setting: then `O=C(Oc1cc(OC(=O)c2ccccc2)c2c(=O)cc(-c3ccccc3)oc2c1)c1ccccc1`, with 3.66 mM.
Regarding `CC(=O)Oc1cc(OC(C)=O)c2c(=O)cc(-c3ccccc3)oc2c1` [CHRYSIN DIACETATE], in the test with H22 [2], the “growth inhibition (GI)” value worked out at 91.56%. Further, the Activity in the test with H22 [3] was 36.34%; in the test on H22 [4] it was 57.44%; in the test with H22 [5], 6.22%. Further, in the test with H22 [1], the IC50 stood at 0.141 mM.
For the compound `O=C(Oc1cc(O)c2c(=O)cc(-c3ccccc3)oc2c1)c1ccccc1`, the IC50 in the test with H22 [1] turned out to be 1.71 mM.
On to `O=C(O)COc1cc(OCC(=O)O)c2c(=O)cc(-c3ccccc3)oc2c1` [FLAVODIC ACID], for which the half-inhibitory concentration (IC50) in the test on H22 [1] worked out at 3.12 mM.
Still for that read-out and setting: then `CCOC(=O)COc1cc(OCC(=O)OCC)c2c(=O)cc(-c3ccccc3)oc2c1`, with 4.03 mM; and `O=C(O)COc1cc(O)cc2oc(-c3ccccc3)cc(=O)c12`, with 2.47 mM.
On the same count and under the same terms, then `CC(=O)Oc1cc(O)c2c(=O)cc(-c3ccccc3)oc2c1`, with 4.29 mM.
As for `O=c1cc(-c2ccccc2)oc2cc(O)cc(O)c12` [CHRYSIN], the Activity in the test on H22 [3] came to 17.13%; with H22 [4], 69.91%; in the test on H22 [5], 12.97%. The IC50 in the test on H22 [1] was determined as 1.67 mM.
